{"source": "patent US9682995B2", "about": "“Amino-substituted isothiazoles” (BAYER PHARMA AKTIENGESELLSCHAFT, priority 2013, dated 2017)", "test_in_all_cases": "Kinase Profiling (KINOMEscan)", "assay_type_in_all_cases": "binding", "key": {"[1]": {"molecular_target": "456 kinases (of these 395 non-mutant kinases) (Homo sapiens, UniProt O00141)", "settings": "SGK; 10 μM"}, "[2]": {"molecular_target": "456 kinases (of these 395 non-mutant kinases) (Homo sapiens, UniProt O00444)", "settings": "PLK4; 10 μM"}, "[3]": {"molecular_target": "456 kinases (of these 395 non-mutant kinases) (Homo sapiens, UniProt O14757)", "settings": "CHEK1; 10 μM"}, "[4]": {"molecular_target": "456 kinases (of these 395 non-mutant kinases) (Homo sapiens, UniProt O15197)", "sequence (O15197 32-1021 limits assumed, change not shown)": "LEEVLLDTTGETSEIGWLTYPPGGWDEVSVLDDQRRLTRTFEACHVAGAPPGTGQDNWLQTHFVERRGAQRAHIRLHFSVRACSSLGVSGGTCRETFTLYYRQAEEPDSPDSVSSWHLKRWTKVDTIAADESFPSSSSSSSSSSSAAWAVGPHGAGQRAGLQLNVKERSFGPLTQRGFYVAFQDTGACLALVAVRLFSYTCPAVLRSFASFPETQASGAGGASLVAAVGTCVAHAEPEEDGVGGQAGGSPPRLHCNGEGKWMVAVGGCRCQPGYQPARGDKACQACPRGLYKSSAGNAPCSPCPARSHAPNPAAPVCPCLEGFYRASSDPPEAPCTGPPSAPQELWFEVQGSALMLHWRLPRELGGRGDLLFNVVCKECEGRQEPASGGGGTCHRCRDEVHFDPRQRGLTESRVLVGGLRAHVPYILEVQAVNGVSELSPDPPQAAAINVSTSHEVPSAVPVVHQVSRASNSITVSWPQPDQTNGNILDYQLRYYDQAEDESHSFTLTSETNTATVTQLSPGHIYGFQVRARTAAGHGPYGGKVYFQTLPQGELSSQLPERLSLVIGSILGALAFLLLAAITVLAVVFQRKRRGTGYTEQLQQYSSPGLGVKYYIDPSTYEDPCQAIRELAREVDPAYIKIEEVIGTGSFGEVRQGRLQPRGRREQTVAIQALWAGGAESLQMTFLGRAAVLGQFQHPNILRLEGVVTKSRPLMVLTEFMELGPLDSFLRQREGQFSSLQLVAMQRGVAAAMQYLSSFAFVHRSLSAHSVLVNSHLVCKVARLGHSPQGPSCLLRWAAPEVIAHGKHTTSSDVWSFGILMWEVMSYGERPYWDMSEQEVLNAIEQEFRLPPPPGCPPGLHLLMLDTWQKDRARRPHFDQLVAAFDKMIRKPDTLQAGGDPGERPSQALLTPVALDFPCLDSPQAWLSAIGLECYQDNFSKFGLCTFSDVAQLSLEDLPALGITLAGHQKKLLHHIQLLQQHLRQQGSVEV", "settings": "EPHB6; 10 μM"}, "[5]": {"molecular_target": "456 kinases (of these 395 non-mutant kinases) (Homo sapiens, UniProt O75747)", "settings": "PIK3C2G; 10 μM"}, "[6]": {"molecular_target": "456 kinases (of these 395 non-mutant kinases) (Homo sapiens, UniProt P00519, F317I)", "settings": "10 μM"}, "[7]": {"molecular_target": "456 kinases (of these 395 non-mutant kinases) (Homo sapiens, UniProt P08922)", "settings": "ROS1; 10 μM"}, "[8]": {"molecular_target": "456 kinases (of these 395 non-mutant kinases) (Homo sapiens, UniProt P10721, A829P)", "sequence (P10721 26-976 A829P limits assumed)": "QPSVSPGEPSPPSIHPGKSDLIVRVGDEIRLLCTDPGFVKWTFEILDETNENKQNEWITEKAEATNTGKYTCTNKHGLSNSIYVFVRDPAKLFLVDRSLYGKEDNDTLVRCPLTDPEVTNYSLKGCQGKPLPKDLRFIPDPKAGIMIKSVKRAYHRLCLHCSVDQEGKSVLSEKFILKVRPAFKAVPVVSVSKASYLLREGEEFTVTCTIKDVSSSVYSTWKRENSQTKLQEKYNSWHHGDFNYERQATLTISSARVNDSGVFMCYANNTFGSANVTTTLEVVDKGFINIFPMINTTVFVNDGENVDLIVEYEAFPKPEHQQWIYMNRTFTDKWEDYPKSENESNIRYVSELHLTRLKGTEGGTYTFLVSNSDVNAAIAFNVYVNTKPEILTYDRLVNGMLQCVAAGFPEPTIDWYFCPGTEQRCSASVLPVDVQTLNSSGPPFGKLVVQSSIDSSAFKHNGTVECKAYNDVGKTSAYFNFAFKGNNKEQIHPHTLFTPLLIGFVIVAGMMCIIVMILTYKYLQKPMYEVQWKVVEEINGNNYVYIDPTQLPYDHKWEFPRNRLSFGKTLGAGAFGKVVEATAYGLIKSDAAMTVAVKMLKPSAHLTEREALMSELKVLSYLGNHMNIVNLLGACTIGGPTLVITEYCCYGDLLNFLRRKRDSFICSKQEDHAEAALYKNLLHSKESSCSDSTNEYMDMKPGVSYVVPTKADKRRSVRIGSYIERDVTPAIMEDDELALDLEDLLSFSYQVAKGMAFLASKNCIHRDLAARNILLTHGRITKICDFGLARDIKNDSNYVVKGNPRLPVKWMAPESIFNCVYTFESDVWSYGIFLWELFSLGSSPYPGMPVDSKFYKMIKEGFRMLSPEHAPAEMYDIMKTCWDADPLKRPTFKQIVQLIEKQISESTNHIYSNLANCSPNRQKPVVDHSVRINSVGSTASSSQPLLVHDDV", "settings": "KIT(A829P); 10 μM"}, "[9]": {"molecular_target": "456 kinases (of these 395 non-mutant kinases) (Homo sapiens, UniProt P11802)", "sequence (P11802 2-303 limits assumed, change not shown)": "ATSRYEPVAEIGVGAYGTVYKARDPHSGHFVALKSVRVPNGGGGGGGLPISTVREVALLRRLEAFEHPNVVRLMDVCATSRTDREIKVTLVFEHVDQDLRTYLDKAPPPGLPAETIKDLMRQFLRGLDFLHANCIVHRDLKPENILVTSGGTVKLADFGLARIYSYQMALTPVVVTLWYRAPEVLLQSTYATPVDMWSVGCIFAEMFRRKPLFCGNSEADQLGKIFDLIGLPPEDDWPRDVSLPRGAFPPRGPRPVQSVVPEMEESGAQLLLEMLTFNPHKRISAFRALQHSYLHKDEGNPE", "settings": "10 μM"}, "[10]": {"molecular_target": "456 kinases (of these 395 non-mutant kinases) (Homo sapiens, UniProt P15056, V600E)", "sequence (P15056 2-766 V600E limits assumed)": "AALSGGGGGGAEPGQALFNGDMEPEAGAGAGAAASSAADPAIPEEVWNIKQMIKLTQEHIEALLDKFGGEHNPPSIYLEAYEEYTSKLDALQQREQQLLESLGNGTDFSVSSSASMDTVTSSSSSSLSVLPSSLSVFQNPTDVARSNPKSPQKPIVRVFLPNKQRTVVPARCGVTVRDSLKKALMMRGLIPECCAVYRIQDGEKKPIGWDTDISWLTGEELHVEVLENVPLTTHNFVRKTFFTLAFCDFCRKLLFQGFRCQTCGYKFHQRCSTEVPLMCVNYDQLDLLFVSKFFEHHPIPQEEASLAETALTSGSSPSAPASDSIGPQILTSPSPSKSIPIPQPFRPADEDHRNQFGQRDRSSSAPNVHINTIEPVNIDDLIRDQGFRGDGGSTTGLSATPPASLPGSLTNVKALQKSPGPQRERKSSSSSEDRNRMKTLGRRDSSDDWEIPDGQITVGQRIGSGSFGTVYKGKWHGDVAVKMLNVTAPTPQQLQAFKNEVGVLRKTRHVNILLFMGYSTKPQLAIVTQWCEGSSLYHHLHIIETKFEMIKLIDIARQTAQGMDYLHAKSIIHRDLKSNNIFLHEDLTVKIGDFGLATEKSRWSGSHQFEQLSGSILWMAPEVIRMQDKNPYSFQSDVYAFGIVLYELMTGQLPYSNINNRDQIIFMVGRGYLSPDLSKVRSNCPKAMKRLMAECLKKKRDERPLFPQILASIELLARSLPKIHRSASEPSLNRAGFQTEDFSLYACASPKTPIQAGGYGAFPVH", "settings": "BRAF(V600E); 10 μM"}, "[11]": {"molecular_target": "456 kinases (of these 395 non-mutant kinases) (Homo sapiens, UniProt P16234)", "sequence (P16234 24-1089 limits assumed, change not shown)": "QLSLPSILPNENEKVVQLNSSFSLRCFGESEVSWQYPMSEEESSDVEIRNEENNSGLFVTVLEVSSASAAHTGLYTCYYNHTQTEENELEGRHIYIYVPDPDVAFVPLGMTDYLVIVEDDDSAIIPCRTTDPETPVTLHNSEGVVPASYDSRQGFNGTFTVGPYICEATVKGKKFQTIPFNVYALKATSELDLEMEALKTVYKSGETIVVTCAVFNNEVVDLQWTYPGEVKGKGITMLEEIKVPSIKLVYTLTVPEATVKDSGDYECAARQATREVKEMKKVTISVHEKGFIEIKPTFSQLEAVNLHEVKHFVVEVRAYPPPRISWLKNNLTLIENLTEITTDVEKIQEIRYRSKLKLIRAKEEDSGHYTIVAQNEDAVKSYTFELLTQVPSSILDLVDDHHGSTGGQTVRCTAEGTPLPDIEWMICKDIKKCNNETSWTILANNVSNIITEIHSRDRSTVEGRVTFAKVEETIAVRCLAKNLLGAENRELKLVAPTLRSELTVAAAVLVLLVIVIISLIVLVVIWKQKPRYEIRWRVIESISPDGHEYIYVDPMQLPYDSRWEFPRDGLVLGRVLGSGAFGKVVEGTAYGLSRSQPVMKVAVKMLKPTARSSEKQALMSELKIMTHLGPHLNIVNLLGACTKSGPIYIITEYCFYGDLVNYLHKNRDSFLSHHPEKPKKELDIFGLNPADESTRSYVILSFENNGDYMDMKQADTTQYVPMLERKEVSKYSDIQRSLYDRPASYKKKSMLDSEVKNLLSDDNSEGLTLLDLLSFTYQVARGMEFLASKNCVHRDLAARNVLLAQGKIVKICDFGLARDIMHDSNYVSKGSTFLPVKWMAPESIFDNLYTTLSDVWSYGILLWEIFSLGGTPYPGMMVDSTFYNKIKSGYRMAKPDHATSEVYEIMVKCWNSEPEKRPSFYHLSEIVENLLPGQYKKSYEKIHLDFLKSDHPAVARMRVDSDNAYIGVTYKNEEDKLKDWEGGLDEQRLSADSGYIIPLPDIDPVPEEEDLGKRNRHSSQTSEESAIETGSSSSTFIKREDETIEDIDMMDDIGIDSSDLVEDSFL", "settings": "PDGFRA; 10 μM"}, "[12]": {"molecular_target": "456 kinases (of these 395 non-mutant kinases) (Homo sapiens, UniProt P17612)", "settings": "PKAC-alpha; 10 μM"}, "[13]": {"molecular_target": "456 kinases (of these 395 non-mutant kinases) (Homo sapiens, UniProt P20794)", "settings": "MAK; 10 μM"}, "[14]": {"molecular_target": "456 kinases (of these 395 non-mutant kinases) (Homo sapiens, UniProt P24723)", "settings": "PRKCH; 10 μM"}, "[15]": {"molecular_target": "456 kinases (of these 395 non-mutant kinases) (Homo sapiens, UniProt P42336, H1047L)", "settings": "PIK3CA(H1047L); 10 μM"}, "[16]": {"molecular_target": "456 kinases (of these 395 non-mutant kinases) (Homo sapiens, UniProt Q00536)", "settings": "PCTK1; 10 μM"}, "[17]": {"molecular_target": "456 kinases (of these 395 non-mutant kinases) (Homo sapiens, UniProt Q13177)", "sequence (Q13177 2-524 limits assumed, change not shown)": "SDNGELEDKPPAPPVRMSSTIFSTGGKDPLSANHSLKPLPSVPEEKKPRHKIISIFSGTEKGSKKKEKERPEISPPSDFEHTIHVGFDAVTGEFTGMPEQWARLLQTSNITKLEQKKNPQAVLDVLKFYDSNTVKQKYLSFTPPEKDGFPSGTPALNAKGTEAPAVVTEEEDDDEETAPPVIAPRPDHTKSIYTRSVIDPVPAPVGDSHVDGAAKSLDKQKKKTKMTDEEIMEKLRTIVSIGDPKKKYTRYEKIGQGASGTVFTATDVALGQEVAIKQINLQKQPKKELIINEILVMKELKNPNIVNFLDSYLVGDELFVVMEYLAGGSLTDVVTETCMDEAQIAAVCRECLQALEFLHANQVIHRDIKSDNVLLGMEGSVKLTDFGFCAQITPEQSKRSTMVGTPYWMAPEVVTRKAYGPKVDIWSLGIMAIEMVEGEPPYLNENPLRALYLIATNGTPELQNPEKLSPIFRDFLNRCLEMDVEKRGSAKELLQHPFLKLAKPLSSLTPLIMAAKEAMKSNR", "settings": "PAK2; 10 μM"}, "[18]": {"molecular_target": "456 kinases (of these 395 non-mutant kinases) (Homo sapiens, UniProt Q14012)", "settings": "CAMK1; 10 μM"}, "[19]": {"molecular_target": "456 kinases (of these 395 non-mutant kinases) (Homo sapiens, UniProt Q15835)", "settings": "GRK1; 10 μM"}, "[20]": {"molecular_target": "456 kinases (of these 395 non-mutant kinases) (Homo sapiens, UniProt Q86YV6)", "settings": "MYLK4; 10 μM"}, "[21]": {"molecular_target": "456 kinases (of these 395 non-mutant kinases) (Homo sapiens, UniProt Q8TDC3)", "settings": "BRSK1; 10 μM"}, "[22]": {"molecular_target": "456 kinases (of these 395 non-mutant kinases) (Homo sapiens, UniProt Q8TDR2)", "settings": "STK35; 10 μM"}, "[23]": {"molecular_target": "456 kinases (of these 395 non-mutant kinases) (Homo sapiens, UniProt Q96L34)", "settings": "MARK4; 10 μM"}, "[24]": {"molecular_target": "456 kinases (of these 395 non-mutant kinases) (Homo sapiens, UniProt Q99683)", "settings": "ASK1; 10 μM"}, "[25]": {"molecular_target": "456 kinases (of these 395 non-mutant kinases) (Homo sapiens, UniProt Q9BQI3)", "settings": "EIF2AK1; 10 μM"}, "[26]": {"molecular_target": "456 kinases (of these 395 non-mutant kinases) (Homo sapiens, UniProt Q9BYT3)", "settings": "STK33; 10 μM"}, "[27]": {"molecular_target": "456 kinases (of these 395 non-mutant kinases) (Homo sapiens, UniProt Q9HAZ1)", "settings": "CLK4; 10 μM"}, "[28]": {"molecular_target": "456 kinases (of these 395 non-mutant kinases) (Homo sapiens, UniProt Q9NWZ3)", "settings": "IRAK4; 10 μM"}, "[29]": {"molecular_target": "456 kinases (of these 395 non-mutant kinases) (Homo sapiens, UniProt Q9NY57)", "settings": "YANK2; 10 μM"}, "[30]": {"molecular_target": "456 kinases (of these 395 non-mutant kinases) (Homo sapiens, UniProt Q9UK32)", "settings": "10 μM"}, "[31]": {"molecular_target": "456 kinases (of these 395 non-mutant kinases) (Homo sapiens, UniProt Q9Y5S2)", "settings": "MRCKB; 10 μM"}}}
{"smiles": "CCc1ccccc1NC(=O)c1c(C)nsc1Nc1cnc2cc(F)ccc2n1", "note": "[Example 20, N-(2-Ethylphenyl)-5-[(6-fluoroquinoxalin-2-yl)amino]-3-methyl-1,2-thiazole-4-carboxamide]", "values": [{"measurement": "% Ctrl @ 10 μM", "setting": "[1]", "value": 100, "unit": "% Ctrl"}, {"measurement": "% Ctrl @ 10 μM", "setting": "[2]", "value": 100, "unit": "% Ctrl"}, {"measurement": "% Ctrl @ 10 μM", "setting": "[3]", "value": 73, "unit": "% Ctrl"}, {"measurement": "% Ctrl @ 10 μM", "setting": "[4]", "value": 92, "unit": "% Ctrl"}, {"measurement": "% Ctrl @ 10 μM", "setting": "[5]", "value": 86, "unit": "% Ctrl"}, {"measurement": "% Ctrl @ 10 μM", "setting": "[6]; ABL1(F317I)-nonphosphorylated", "value": 100, "unit": "% Ctrl"}, {"measurement": "% Ctrl @ 10 μM", "setting": "[6]; ABL1(F317I)-phosphorylated", "value": 86, "unit": "% Ctrl"}, {"measurement": "% Ctrl @ 10 μM", "setting": "[7]", "value": 89, "unit": "% Ctrl"}, {"measurement": "% Ctrl @ 10 μM", "setting": "[8]", "value": 94, "unit": "% Ctrl"}, {"measurement": "% Ctrl @ 10 μM", "setting": "[9]; CDK4-cyclinD1", "value": 85, "unit": "% Ctrl"}, {"measurement": "% Ctrl @ 10 μM", "setting": "[9]; CDK4-cyclinD3", "value": 93, "unit": "% Ctrl"}, {"measurement": "% Ctrl @ 10 μM", "setting": "[10]", "value": 100, "unit": "% Ctrl"}, {"measurement": "% Ctrl @ 10 μM", "setting": "[11]", "value": 100, "unit": "% Ctrl"}, {"measurement": "% Ctrl @ 10 μM", "setting": "[12]", "value": 91, "unit": "% Ctrl"}, {"measurement": "% Ctrl @ 10 μM", "setting": "[13]", "value": 100, "unit": "% Ctrl"}, {"measurement": "% Ctrl @ 10 μM", "setting": "[14]", "value": 100, "unit": "% Ctrl"}, {"measurement": "% Ctrl @ 10 μM", "setting": "[15]", "value": 56, "unit": "% Ctrl"}, {"measurement": "% Ctrl @ 10 μM", "setting": "[16]", "value": 100, "unit": "% Ctrl"}, {"measurement": "% Ctrl @ 10 μM", "setting": "[17]", "value": 100, "unit": "% Ctrl"}, {"measurement": "% Ctrl @ 10 μM", "setting": "[18]", "value": 68, "unit": "% Ctrl"}, {"measurement": "% Ctrl @ 10 μM", "setting": "[19]", "value": 100, "unit": "% Ctrl"}, {"measurement": "% Ctrl @ 10 μM", "setting": "[20]", "value": 100, "unit": "% Ctrl"}, {"measurement": "% Ctrl @ 10 μM", "setting": "[21]", "value": 90, "unit": "% Ctrl"}, {"measurement": "% Ctrl @ 10 μM", "setting": "[22]", "value": 84, "unit": "% Ctrl"}, {"measurement": "% Ctrl @ 10 μM", "setting": "[23]", "value": 100, "unit": "% Ctrl"}, {"measurement": "% Ctrl @ 10 μM", "setting": "[24]", "value": 90, "unit": "% Ctrl"}, {"measurement": "% Ctrl @ 10 μM", "setting": "[25]", "value": 100, "unit": "% Ctrl"}, {"measurement": "% Ctrl @ 10 μM", "setting": "[26]", "value": 100, "unit": "% Ctrl"}, {"measurement": "% Ctrl @ 10 μM", "setting": "[27]", "value": 100, "unit": "% Ctrl"}, {"measurement": "% Ctrl @ 10 μM", "setting": "[28]", "value": 100, "unit": "% Ctrl"}, {"measurement": "% Ctrl @ 10 μM", "setting": "[29]", "value": 100, "unit": "% Ctrl"}, {"measurement": "% Ctrl @ 10 μM", "setting": "[30]; RSK4(Kin.Dom.1-N-terminal)", "value": 100, "unit": "% Ctrl"}, {"measurement": "% Ctrl @ 10 μM", "setting": "[30]; RSK4(Kin.Dom.2-C-terminal)", "value": 75, "unit": "% Ctrl"}, {"measurement": "% Ctrl @ 10 μM", "setting": "[31]", "value": 61, "unit": "% Ctrl"}]}
